Experimental data taken from PubChem BioAssay AID1963447 (Molecular Pharmacology Branch, DTP, NCI, 2024).
“And” between values parts separate entries of the source, which are not always exact repeats. Equal values may be shown once. Blank lines part the entries; values can stand above or below the compound they belong to.

System: 885512-296-R-J2-PDC complex spheroid growth, % test/control
Test: Anticancer human tumor 885512-296-R-J2-PDC patient-derived breast carcinoma cell line growth inhibition [Asc]
Conditions: for viability, T/C: stronger effect = lower value
Method in brief: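 Complex solid-tumor spheroids incorporating human endothelial and mesenchymal stem cells received single agents or combinations over half-log dilution ranges anchored to clinical Cmax.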
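Note: spheroids exposed to compounds for seven days.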
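Throughout, for viability, T/C: 100% = DMSO vehicle control wells.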

IC50 (curve of compound): 0.255 µM and 0.113 µM and 0.102 µM
SMILES: O=C(c1ccc(F)c(F)c1Nc1ccc(I)cc1F)N1CC(O)([C@@H]2CCCCN2)C1
viability, T/C (compound 0.00316 µM): 94% and 88.7% and 94.3%
viability, T/C (compound 0.01 µM): 89.3% and 77.1% and 88.9%
viability, T/C (compound 0.0316 µM): 73.9% and 62.5% and 68.7%
viability, T/C (compound 0.1 µM): 69.7% and 54.8% and 47.7%
viability, T/C (compound 0.316 µM): 45.6% and 36.5% and 35.7%
viability, T/C (compound 1 µM): 18.4% and 15.1% and 17.1%

IC50 (curve of first compound, second compound 0.1 µM): > 10 µM
IC50 (curve of first compound, second compound 0.316 µM): > 10 µM
IC50 (curve of first compound, second compound 1 µM): > 10 µM
IC50 (curve of first compound, second compound 3.16 µM): > 10 µM
IC50 (curve of first compound, second compound 10 µM): > 10 µM
SMILES: C#Cc1c(F)ccc2cc(O)cc(-c3ncc4c(N5CC6CCC(C5)N6)nc(OCC56CCCN5CC(F)C6)nc4c3F)c12 (configuration not stated) + Cc1c(S(C)(=O)=O)c(-c2cc(F)cc(N3CCN(c4ccc(NS(=O)(=O)c5ccc(NC(CCN6CCC(C(=O)OCCCP(=O)(O)O)CC6)CSc6ccccc6)c(S(=O)(=O)C(F)(F)F)c5)cc4)CC3)c2)c(-c2ccc(Cl)cc2)n1C(C)C
viability, T/C (second compound 0.1 µM, first compound 0.0316 µM): 96.9%
viability, T/C (second compound 0.1 µM, first compound 0.1 µM): 78.9%
viability, T/C (second compound 0.1 µM, first compound 0.316 µM): 85.1%
viability, T/C (second compound 0.1 µM, first compound 1 µM): 77.4%
viability, T/C (second compound 0.1 µM, first compound 3.16 µM): 74.1%
viability, T/C (second compound 0.1 µM, first compound 10 µM): 70.9%
viability, T/C (second compound 0.316 µM, first compound 0.0316 µM): 96.8%
viability, T/C (second compound 0.316 µM, first compound 0.1 µM): 105%
viability, T/C (second compound 0.316 µM, first compound 0.316 µM): 90.9%
viability, T/C (second compound 0.316 µM, first compound 1 µM): 72.4%
viability, T/C (second compound 0.316 µM, first compound 3.16 µM): 95.4%
viability, T/C (second compound 0.316 µM, first compound 10 µM): 71%
viability, T/C (second compound 1 µM, first compound 0.0316 µM): 88.3%
viability, T/C (second compound 1 µM, first compound 0.1 µM): 82.9%
viability, T/C (second compound 1 µM, first compound 0.316 µM): 93%
viability, T/C (second compound 1 µM, first compound 1 µM): 66.6%
viability, T/C (second compound 1 µM, first compound 3.16 µM): 86%
viability, T/C (second compound 1 µM, first compound 10 µM): 66.9%
viability, T/C (second compound 3.16 µM, first compound 0.0316 µM): 88.3%
viability, T/C (second compound 3.16 µM, first compound 0.1 µM): 112%
viability, T/C (second compound 3.16 µM, first compound 0.316 µM): 82.7%
viability, T/C (second compound 3.16 µM, first compound 1 µM): 76.5%
viability, T/C (second compound 3.16 µM, first compound 3.16 µM): 79.8%
viability, T/C (second compound 3.16 µM, first compound 10 µM): 76.4%
viability, T/C (second compound 10 µM, first compound 0.0316 µM): 115%
viability, T/C (second compound 10 µM, first compound 0.1 µM): 112%
viability, T/C (second compound 10 µM, first compound 0.316 µM): 101%
viability, T/C (second compound 10 µM, first compound 1 µM): 117%
viability, T/C (second compound 10 µM, first compound 3.16 µM): 103%
viability, T/C (second compound 10 µM, first compound 10 µM): 51.4%

IC50 (compound alone, run of 09/27/2022): > 10 µM
SMILES: Cc1c(S(C)(=O)=O)c(-c2cc(F)cc(N3CCN(c4ccc(NS(=O)(=O)c5ccc(NC(CCN6CCC(C(=O)OCCCP(=O)(O)O)CC6)CSc6ccccc6)c(S(=O)(=O)C(F)(F)F)c5)cc4)CC3)c2)c(-c2ccc(Cl)cc2)n1C(C)C (configuration not stated)
viability, T/C (compound 0.1 µM): 84.8% [middle of 14 runs]
viability, T/C (compound 0.316 µM): 86.5% [middle of 14 runs]
viability, T/C (compound 1 µM): 88.8% [middle of 14 runs]
viability, T/C (compound 10 µM): 114% [middle of 14 runs]
